Converted amounts (≈) assume the structure as drawn. “And” between values parts separate entries of the source, which are not always exact repeats. Equal entries are not always repeated. Structures can show the parent of a compound that is named as a salt. Where two headings read alike, the source gives them in different places.
How the values were obtained:
Test in all cases: Antibacterial activity, minimum inhibition concentration (method of The Chemotherapy Association, Japan)
Format in all cases: cell-based
Proteus rettgeri NIH-96 = details: for MIC: Providencia rettgeri; for minimum inhibition concentration: strain I: Proteus rettgeri NIH-96
Text: (§1) The abbreviations A to P will be used in the following Tables 2 to 8.
(§2) Test results are shown in terms of the minimum inhibition concentration (µg/mℓ.) in the following Tables 2 to 8.

Proteus vulgaris OX-19 = details: for MIC: Proteus vulgaris; for minimum inhibition concentration: strain H: Proteus vulgaris OX-19
Text: as §1, §2

[1] = system: Bacillus subtilis ATCC 6633; details: for MIC: Bacillus subtilis; for minimum inhibition concentration: strain B: Bacillus subtilis ATCC 6633
Description: (§3) Antibacterial activities of the compounds according to this invention, which had been prepared in the preceding Examples, were measured according to the method prescribed by The Committee of Amendment of "The method for measurement of the minimum inhibition concentration", The Chemotherapy Association, Japan (See Chemotherapy, Vol. 22, No. 6, pp. 1126 - 1128 (1974) and Vol. 29, No. 1, pp. 76 - 79 (1981)).
as §1, §2

[2] = system: Citrobactor freundii NIH-10018 -68; details: for MIC: read-out: minimum inhibition concentration
Description: as §3, §1, §2

[3] = system: Enterobactor cloacae NCTC-9394; details: for MIC: read-out: minimum inhibition concentration
Description: as §3, §1, §2

Escherichia coli NIHJC-2 = details: for MIC: Escherichia coli; for minimum inhibition concentration: strain L: Escherichia coli NIHJC-2
Description: as §3, §1, §2

Escherichia coli NIHJ = details: for MIC: Escherichia coli, read-out: minimum inhibition concentration
Description: as §3, §1, §2

Klebsiella pneumoniae = details: for MIC: Klebsiella pneumoniae
Description: as §3, §1, §2

[4] = system: Proteus mirabillis B-30-2 IFO-3849
Description: as §3, §1, §2

Proteus morgani Kono = details: for MIC: read-out: minimum inhibition concentration
Description: as §3, §1, §2

[5] = system: Pseudomonas aeruginosa NCTC-10490; details: for MIC: Pseudomonas aeruginosa; for minimum inhibition concentration: strain M: Pseudomonas aeruginosa NCTC-10490
Description: as §3, §1, §2

[6] = system: Salmonella typhimurium 3173; details: for MIC: Salmonella enterica, TYPHIMURIUM
Description: as §3, §1, §2

Serratia marcescens 1023 = system: Serratia marcescens 1023
Description: as §3, §1, §2

[7] = system: Serratia marcescens IFO-3736; details: for MIC: Serratia marcescens; for minimum inhibition concentration: strain F: Serratia marcescens IFO-3736
Description: as §3, §1, §2

[8] = system: Staphylococcus aureus 6538-P
Description: as §3, §1, §2

[9] = NIH96, strain I: Proteus rettgeri NIH-96, read-out: minimum inhibition concentration
[10] = OX19, strain H: Proteus vulgaris OX-19, read-out: minimum inhibition concentration
[11] = ATCC6633, strain B: Bacillus subtilis ATCC 6633, read-out: minimum inhibition concentration
[12] = strain O: Citrobactor freundii NIH-10018 -68
[13] = strain N: Enterobactor cloacae NCTC-9394
[14] = NIHJC2, strain L: Escherichia coli NIHJC-2, read-out: minimum inhibition concentration
[15] = strain K: Escherichia coli NIHJ
[16] = strain C: Klebsiella pneumoniae, read-out: minimum inhibition concentration
[17] = strain G: Proteus mirabillis B-30-2 IFO-3849, read-out: minimum inhibition concentration
[18] = NCTC10490, strain M: Pseudomonas aeruginosa NCTC-10490, read-out: minimum inhibition concentration
[19] = strain D: Salmonella typhimurium 3173, read-out: minimum inhibition concentration
[20] = IFO3736, strain F: Serratia marcescens IFO-3736, read-out: minimum inhibition concentration
[21] = strain A: Staphylococcus aureus 6538-P, read-out: minimum inhibition concentration
[22] = NIHJC2, read-out: minimum inhibition concentration
[23] = read-out: minimum inhibition concentration, strain G: Proteus mirabillis B-30-2 IFO-3849
[24] = NCTC10490, read-out: minimum inhibition concentration
[25] = read-out: minimum inhibition concentration, strain D: Salmonella typhimurium 3173
[26] = IFO3736, read-out: minimum inhibition concentration
[27] = strain A: Staphylococcus aureus 6538-P
[28] = strain C: Klebsiella pneumoniae
[29] = strain G: Proteus mirabillis B-30-2 IFO-3849
[30] = strain D: Salmonella typhimurium 3173

Compound	MIC (Proteus rettgeri NIH-96; [9]) [mg/L]	MIC (Proteus vulgaris OX-19; [10]) [mg/L]	MIC [1, 11] [mg/L]	MIC [2, 12] [mg/L]	MIC [3, 13] [mg/L]	MIC (Escherichia coli NIHJC-2; [14]) [mg/L]	MIC (Escherichia coli NIHJ; [15]) [mg/L]	MIC (Klebsiella pneumoniae; [16]) [mg/L]	MIC [4, 17] [mg/L]	MIC (Proteus morgani Kono; strain J: Proteus morgani Kono) [mg/L]	MIC [5, 18] [mg/L]	MIC [6, 19] [mg/L]	MIC [7, 20] [mg/L]	MIC [8, 21] [mg/L]	minimum inhibition concentration (Proteus vulgaris OX-19) [mg/L]	minimum inhibition concentration [8, 27] [mg/L]	minimum inhibition concentration [3, 13] [mg/L]	minimum inhibition concentration (Escherichia coli NIHJC-2) [mg/L]	minimum inhibition concentration [4, 29]	minimum inhibition concentration [6, 30] [mg/L]	also measured
Nc1nc(C(=CCl)C(=O)NC2C(=O)N3C(C(=O)[O-])=C(C[n+]4ccccc4)CSC23)cs1 (stereo not drawn) [Compound 24, 7-[2-chloromethylene-2-(2-aminothiazol-4-yl)acetamido]-3-pyridiniummethyl-3-cephem-4-carboxylic acid betaine]	0.78 (≈ 1.63 µM)	3.12 (≈ 6.54 µM)	25 (≈ 52.3 µM)	25 (≈ 52.3 µM)	12.5 (≈ 26.2 µM)	25 (≈ 52.3 µM)	1.56 (≈ 3.26 µM)	25 (≈ 52.3 µM)	12.5 (≈ 26.2 µM)	25 (≈ 52.3 µM)	> 100	25 (≈ 52.3 µM)	50 (≈ 105 µM)	6.25 (≈ 13.1 µM)							MIC (Serratia marcescens 1023; Serratia marcescens, 1023, strain E: Serratia marcescens 1023, read-out: minimum inhibition concentration): 25 mg/L (≈ 52.3 µM)
CC(=O)OCC1=C(C(=O)[O-])N2C(=O)C(NC(=O)C(=CCl)c3csc(N)n3)[C@H]2SC1.[Na+] (stereo partly drawn) [Compound 20, 7-[2-chloromethylene-2-(2-aminothiazol-4-yl)acetamido]-3-acetoxymethyl-3-cephem-4-carboxylic acid sodium salt]																					MIC (Proteus rettgeri NIH-96; NIH96, read-out: minimum inhibition concentration, strain I: Proteus rettgeri NIH-96): 0.025 mg/L; MIC (Proteus vulgaris OX-19; OX19, read-out: minimum inhibition concentration, strain H: Proteus vulgaris OX-19): 0.2 mg/L; MIC ([1]; ATCC6633, read-out: minimum inhibition concentration, strain B: Bacillus subtilis ATCC 6633): 6.25 mg/L; MIC [2]: 1.56 mg/L; MIC [3]: 0.78 mg/L; MIC (Escherichia coli NIHJC-2; [22]): 3.12 mg/L; MIC (Escherichia coli NIHJ): 0.05 mg/L; MIC (Klebsiella pneumoniae; read-out: minimum inhibition concentration, strain C: Klebsiella pneumoniae): 1.56 mg/L; MIC [4, 23]: 1.56 mg/L; MIC (Proteus morgani Kono): 1.56 mg/L; MIC [5, 24]: 6.25 mg/L; MIC [6, 25]: 3.12 mg/L; MIC (Serratia marcescens 1023; Serratia marcescens, 1023, read-out: minimum inhibition concentration, strain E: Serratia marcescens 1023): 12.5 mg/L; MIC [7, 26]: 6.25 mg/L; MIC ([8]; Staphylococcus aureus, 6538P, read-out: minimum inhibition concentration, strain A: Staphylococcus aureus 6538-P): 1.56 mg/L
CC(=O)OCC1=C(C(=O)O)N2C(=O)C(NC(=O)C(=C(Cl)Cl)c3ccccc3)[C@H]2SC1 (stereo partly drawn) [Compound 38, 7-(2-dichloromethylene-2-phenylacetamido)-3-acetoxymethyl-3-cephem-4-carboxylic acid]							3.1 (≈ 6.58 µM)				> 100			1.56 (≈ 3.31 µM)							
Cn1nnnc1SCC1=C(C(=O)O)N2C(=O)C(NC(=O)C(=C(Cl)Cl)c3csc(N)n3)C2SC1 (stereo not drawn) [6-(3), 7-[2-dichloromethylene-(2-aminothiazol-4-yl)-acetamido]-3-(l-methyl-lH-tetrazol-5-yl)thiomethyl-3-cephem-4-carboxylic acid sodium salt]															0.1	0.78					minimum inhibition concentration (Proteus rettgeri NIH-96): <0.025 mg/L; minimum inhibition concentration ([1]; sodium salt): 25 mg/L; minimum inhibition concentration (Escherichia coli NIHJ; strain K: Escherichia coli NIHJ, sodium salt): 0.05 mg/L; minimum inhibition concentration (Klebsiella pneumoniae; strain C: Klebsiella pneumoniae, sodium salt): 6.25 mg/L; minimum inhibition concentration ([6]; strain D: Salmonella typhimurium 3173, sodium salt): 3.125 mg/L
7-[2-chloromethylene-2-(2-aminothiazol-4-yl)acetamido]-3-[(2,5-dihydro-6-hydroxy-2-methyl-5-oxo-as-triazin-3-yl)thiomethyl-3-cephem-4-carboxylic acid disodium salt [Compound 22]															0.1	0.78	0.39	3.125	0.39 mg/L	1.56	minimum inhibition concentration [1]: 6.25 mg/L; minimum inhibition concentration [2, 12]: 1.56 mg/L; minimum inhibition concentration (Escherichia coli NIHJ; [15]): <0.00625 mg/L; minimum inhibition concentration (Klebsiella pneumoniae; [28]): 0.78 mg/L; minimum inhibition concentration (Proteus morgani Kono; strain J: Proteus morgani Kono): 0.39 mg/L; minimum inhibition concentration [5]: 6.25 mg/L; minimum inhibition concentration (Serratia marcescens 1023; strain E: Serratia marcescens 1023): 6.25 mg/L; minimum inhibition concentration [7]: 1.56 mg/L
CSc1nnc(SCC2=C(C(=O)O)N3C(=O)C(NC(=O)C(=C(Cl)Cl)c4csc(N)n4)C3SC2)s1 (stereo not drawn) [9-(2), 7-[2-dichloromethylene-2-(aminothiazol-4-yl)-acetamido]-3-(2-methylthio-l,3,4-thiadiazol-5-yl) thiomethyl-3-cephem-4-carboxylic acid sodium salt]	< 0.025	0.2	3.12	12.5	3.12	25	< 0.025	12.5	25	12.5	12.5	12.5	50	0.78							
CN(C)CCn1nnnc1SCC1=C(C(=O)O)N2C(=O)C(NC(=O)C(=C(Cl)Cl)c3csc(N)n3)C2SC1 (stereo not drawn) [10-(1), 7-[2-dichloromethylene-2-(2-aminothiazol-4-yl)-acetamido]-3-[l-(2-dimethylaminoethyl)-lH-tetrazol-5-yl]thiomethyl-3-cephem-4-carboxylic acid]	0.05 (≈ 0.0824 µM)	0.78 (≈ 1.29 µM)	12.5 (≈ 20.6 µM)	12.5 (≈ 20.6 µM)	3.12 (≈ 5.15 µM)	12.5 (≈ 20.6 µM)	0.1 (≈ 0.165 µM)	12.5 (≈ 20.6 µM)	25 (≈ 41.2 µM)	12.5 (≈ 20.6 µM)	25 (≈ 41.2 µM)	12.5 (≈ 20.6 µM)	50 (≈ 82.4 µM)	3.12 (≈ 5.15 µM)							
7-[2-dichloromethylene-2-(2-aminothiazol-4-yl)acetamido]-3-(l-carboxymethyltetrazol-5-yl)thiomethyl-3-cephem-4-carboxylic acid disodium salt [7-(3)]															0.1	6.25	3.125	25	1.56 mg/L	6.25	minimum inhibition concentration (Proteus rettgeri NIH-96): <0.025 mg/L; minimum inhibition concentration [1]: 12.5 mg/L; minimum inhibition concentration [2, 12]: 12.5 mg/L; minimum inhibition concentration (Escherichia coli NIHJ; [15]): <0.025 mg/L; minimum inhibition concentration (Klebsiella pneumoniae; [28]): 12.5 mg/L; minimum inhibition concentration (Proteus morgani Kono; strain J: Proteus morgani Kono): 3.125 mg/L; minimum inhibition concentration [5]: 6.25 mg/L; minimum inhibition concentration [7]: 25 mg/L
CC1=C(C(=O)O)N2C(=O)C(NC(=O)C(=C(Cl)Cl)c3csc(N)n3)C2SC1 (stereo not drawn) [8-(3), 7-[2-dichloromethylene-2-(2-aminothiazol-4-yl)-acetamido]-desacetoxycephalosporanic acid sodium salt]	0.2	12.5	100	> 100	100	100	6.25	> 100	100	> 100	> 100	> 100	> 100	25							
CC(=O)OCC1=C(C(=O)O)N2C(=O)[C@@H](NC(=O)Cc3cccs3)[C@H]2SC1 [Cephalo-thin, reference compound]					50 (≈ 126 µM)	25 (≈ 63.1 µM)											>100	50 (≈ 126 µM)	25 mg/L and 12.5 mg/L	6.25 (≈ 15.8 µM)	MIC (Escherichia coli NIHJC-2; [22]): 12.5 mg/L (≈ 31.5 µM); MIC (Escherichia coli NIHJ): 12.5 mg/L (≈ 31.5 µM); MIC [4, 23]: 12.5 mg/L (≈ 31.5 µM); MIC (Proteus morgani Kono): > 100 mg/L; MIC [5, 24]: > 100 mg/L; MIC [6, 25]: 3.17 mg/L (≈ 8.01 µM); MIC [7, 26]: > 100 mg/L
